In the kinase profiling compilation of Christmann-Franck et al. (2016):

Experiments:
Assay in all cases: radiometric filter-binding kinase assay, Kinase HotSpot
Settings in all cases: compound 0.5 µM; ATP 10 µM
AURKA (human) = AURKA (human) (UniProt O14965)
CAMK1 (human) = CAMK1 (human) (UniProt Q14012)
CAMKK2 (human) = CAMKK2 (human) (UniProt Q96RR4)
CDC42BPA (human) = CDC42BPA (human) (UniProt Q5VT25)
CDK1 CCNB1 (human) = CDK1 CCNB1 (human) (UniProt P06493+P14635)
CDK2 CCNA2 (human) = CDK2 CCNA2 (human) (UniProt P24941+P20248)
CDK5 CDK5R1 p35 (human) = CDK5 CDK5R1 p35 (human) (UniProt Q00535+Q15078)
CDK6 CCND3 (human) = CDK6 CCND3 (human) (UniProt P30281+Q00534)
CDK7 CCNH MNAT1 (human) = CDK7 CCNH MNAT1 (human) (UniProt P50613+P51948+P51946)
CDK9 CCNK (human) = CDK9 CCNK (human) (UniProt O75909+P50750)
CSF1R (human) = CSF1R (human) (UniProt P07333)
DYRK2 (human) = DYRK2 (human) (UniProt Q92630)
EPHB1 (human) = EPHB1 (human) (UniProt P54762)
ERBB4 (human) = ERBB4 (human) (UniProt Q15303)
FGFR2 (human) = FGFR2 (human) (UniProt P21802)
GRK7 (human) = GRK7 (human) (UniProt Q8WTQ7)
Sequence of GRK7 (human) (Q8WTQ7 whole entry, looked up): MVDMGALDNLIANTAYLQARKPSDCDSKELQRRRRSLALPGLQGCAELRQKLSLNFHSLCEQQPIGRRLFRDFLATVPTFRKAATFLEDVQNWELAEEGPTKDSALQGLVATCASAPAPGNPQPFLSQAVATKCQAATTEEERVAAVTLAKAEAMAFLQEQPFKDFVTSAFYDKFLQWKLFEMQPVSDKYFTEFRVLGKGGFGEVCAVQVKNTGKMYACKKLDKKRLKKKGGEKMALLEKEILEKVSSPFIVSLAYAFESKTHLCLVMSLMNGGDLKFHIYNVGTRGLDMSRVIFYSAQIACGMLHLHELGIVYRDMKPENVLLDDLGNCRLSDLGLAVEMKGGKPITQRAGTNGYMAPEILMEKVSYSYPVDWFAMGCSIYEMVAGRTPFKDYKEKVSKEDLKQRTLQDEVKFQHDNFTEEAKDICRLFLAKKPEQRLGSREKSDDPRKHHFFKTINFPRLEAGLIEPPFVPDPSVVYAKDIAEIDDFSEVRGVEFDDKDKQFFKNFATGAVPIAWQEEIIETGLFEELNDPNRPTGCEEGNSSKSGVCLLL

IRAK1 (human) = IRAK1 (human) (UniProt P51617)
MAP3K10 (human) = MAP3K10 (human) (UniProt Q02779)
MAP3K14 (human) = MAP3K14 (human) (UniProt Q99558)
Sequence of MAP3K14 (human) (Q99558 whole entry, looked up): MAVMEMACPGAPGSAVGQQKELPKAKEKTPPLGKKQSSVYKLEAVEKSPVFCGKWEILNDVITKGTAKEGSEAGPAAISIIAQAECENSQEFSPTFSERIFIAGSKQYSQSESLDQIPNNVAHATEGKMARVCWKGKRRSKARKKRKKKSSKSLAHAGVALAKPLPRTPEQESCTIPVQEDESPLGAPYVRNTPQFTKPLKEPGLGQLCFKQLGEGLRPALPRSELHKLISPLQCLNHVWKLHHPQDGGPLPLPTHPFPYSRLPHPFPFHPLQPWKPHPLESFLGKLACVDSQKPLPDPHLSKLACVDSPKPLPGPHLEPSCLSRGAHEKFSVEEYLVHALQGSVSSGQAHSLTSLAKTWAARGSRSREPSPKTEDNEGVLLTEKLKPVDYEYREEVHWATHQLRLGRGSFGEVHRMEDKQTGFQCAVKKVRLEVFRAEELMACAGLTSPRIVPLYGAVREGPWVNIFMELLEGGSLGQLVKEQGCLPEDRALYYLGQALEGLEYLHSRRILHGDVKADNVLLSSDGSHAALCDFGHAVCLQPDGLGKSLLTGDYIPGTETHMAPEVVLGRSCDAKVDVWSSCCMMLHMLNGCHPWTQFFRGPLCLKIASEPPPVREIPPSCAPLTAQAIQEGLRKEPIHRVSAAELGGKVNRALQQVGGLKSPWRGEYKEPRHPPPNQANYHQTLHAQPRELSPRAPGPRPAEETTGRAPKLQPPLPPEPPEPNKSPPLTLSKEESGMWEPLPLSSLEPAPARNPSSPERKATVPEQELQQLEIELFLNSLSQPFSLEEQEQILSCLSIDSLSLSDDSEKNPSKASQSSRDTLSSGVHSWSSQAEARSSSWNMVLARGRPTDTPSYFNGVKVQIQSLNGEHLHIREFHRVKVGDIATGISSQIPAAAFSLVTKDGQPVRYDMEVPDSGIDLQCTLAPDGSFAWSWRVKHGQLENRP

MAP3K5 (human) = MAP3K5 (human) (UniProt Q99683)
Sequence of MAP3K5 (human) (Q99683 whole entry, looked up): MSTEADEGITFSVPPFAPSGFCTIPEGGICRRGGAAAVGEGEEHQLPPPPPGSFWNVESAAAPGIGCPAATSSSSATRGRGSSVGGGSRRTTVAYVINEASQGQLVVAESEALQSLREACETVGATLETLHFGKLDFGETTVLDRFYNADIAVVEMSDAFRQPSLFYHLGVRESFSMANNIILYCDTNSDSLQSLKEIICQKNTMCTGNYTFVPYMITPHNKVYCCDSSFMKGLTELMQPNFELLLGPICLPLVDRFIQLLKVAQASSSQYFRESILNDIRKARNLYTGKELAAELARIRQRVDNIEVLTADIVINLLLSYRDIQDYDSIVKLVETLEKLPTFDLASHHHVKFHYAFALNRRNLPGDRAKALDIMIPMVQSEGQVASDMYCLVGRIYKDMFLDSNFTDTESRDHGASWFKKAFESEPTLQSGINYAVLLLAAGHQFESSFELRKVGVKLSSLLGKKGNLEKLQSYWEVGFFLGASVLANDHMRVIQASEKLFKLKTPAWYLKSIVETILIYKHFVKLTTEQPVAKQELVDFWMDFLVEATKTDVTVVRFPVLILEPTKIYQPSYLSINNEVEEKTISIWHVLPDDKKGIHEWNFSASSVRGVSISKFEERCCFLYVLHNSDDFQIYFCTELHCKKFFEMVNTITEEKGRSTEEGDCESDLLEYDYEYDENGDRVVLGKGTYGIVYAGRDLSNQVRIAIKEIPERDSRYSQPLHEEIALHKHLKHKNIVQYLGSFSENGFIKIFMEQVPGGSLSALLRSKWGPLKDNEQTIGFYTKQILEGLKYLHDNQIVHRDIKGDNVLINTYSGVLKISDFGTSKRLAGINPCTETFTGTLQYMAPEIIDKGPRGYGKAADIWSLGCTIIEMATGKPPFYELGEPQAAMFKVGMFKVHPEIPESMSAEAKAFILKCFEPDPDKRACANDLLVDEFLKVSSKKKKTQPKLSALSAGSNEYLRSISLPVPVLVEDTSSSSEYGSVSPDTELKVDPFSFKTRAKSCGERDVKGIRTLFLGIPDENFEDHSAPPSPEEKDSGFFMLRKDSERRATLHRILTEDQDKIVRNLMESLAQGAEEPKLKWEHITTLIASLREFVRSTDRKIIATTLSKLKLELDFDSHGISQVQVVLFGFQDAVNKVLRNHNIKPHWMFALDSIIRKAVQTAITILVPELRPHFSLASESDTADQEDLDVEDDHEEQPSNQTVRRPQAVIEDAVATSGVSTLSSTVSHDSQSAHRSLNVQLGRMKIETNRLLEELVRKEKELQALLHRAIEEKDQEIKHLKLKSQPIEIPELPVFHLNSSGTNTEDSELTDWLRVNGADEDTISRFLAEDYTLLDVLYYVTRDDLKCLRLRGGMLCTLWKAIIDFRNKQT

MAPK11 (human) = MAPK11 (human) (UniProt Q15759)
MAPKAPK3 (human) = MAPKAPK3 (human) (UniProt Q16644)
MAPKAPK5 (human) = MAPKAPK5 (human) (UniProt Q8IW41)
MARK1 (human) = MARK1 (human) (UniProt Q9P0L2)
MERTK (human) = MERTK (human) (UniProt Q12866)
MYLK2 (human) = MYLK2 (human) (UniProt Q9H1R3)
NEK11 (human) = NEK11 (human) (UniProt Q8NG66)
PAK3 (human) = PAK3 (human) (UniProt O75914)
PDGFRB (human) = PDGFRB (human) (UniProt P09619)
Sequence of PDGFRB (human) (P09619 whole entry, looked up): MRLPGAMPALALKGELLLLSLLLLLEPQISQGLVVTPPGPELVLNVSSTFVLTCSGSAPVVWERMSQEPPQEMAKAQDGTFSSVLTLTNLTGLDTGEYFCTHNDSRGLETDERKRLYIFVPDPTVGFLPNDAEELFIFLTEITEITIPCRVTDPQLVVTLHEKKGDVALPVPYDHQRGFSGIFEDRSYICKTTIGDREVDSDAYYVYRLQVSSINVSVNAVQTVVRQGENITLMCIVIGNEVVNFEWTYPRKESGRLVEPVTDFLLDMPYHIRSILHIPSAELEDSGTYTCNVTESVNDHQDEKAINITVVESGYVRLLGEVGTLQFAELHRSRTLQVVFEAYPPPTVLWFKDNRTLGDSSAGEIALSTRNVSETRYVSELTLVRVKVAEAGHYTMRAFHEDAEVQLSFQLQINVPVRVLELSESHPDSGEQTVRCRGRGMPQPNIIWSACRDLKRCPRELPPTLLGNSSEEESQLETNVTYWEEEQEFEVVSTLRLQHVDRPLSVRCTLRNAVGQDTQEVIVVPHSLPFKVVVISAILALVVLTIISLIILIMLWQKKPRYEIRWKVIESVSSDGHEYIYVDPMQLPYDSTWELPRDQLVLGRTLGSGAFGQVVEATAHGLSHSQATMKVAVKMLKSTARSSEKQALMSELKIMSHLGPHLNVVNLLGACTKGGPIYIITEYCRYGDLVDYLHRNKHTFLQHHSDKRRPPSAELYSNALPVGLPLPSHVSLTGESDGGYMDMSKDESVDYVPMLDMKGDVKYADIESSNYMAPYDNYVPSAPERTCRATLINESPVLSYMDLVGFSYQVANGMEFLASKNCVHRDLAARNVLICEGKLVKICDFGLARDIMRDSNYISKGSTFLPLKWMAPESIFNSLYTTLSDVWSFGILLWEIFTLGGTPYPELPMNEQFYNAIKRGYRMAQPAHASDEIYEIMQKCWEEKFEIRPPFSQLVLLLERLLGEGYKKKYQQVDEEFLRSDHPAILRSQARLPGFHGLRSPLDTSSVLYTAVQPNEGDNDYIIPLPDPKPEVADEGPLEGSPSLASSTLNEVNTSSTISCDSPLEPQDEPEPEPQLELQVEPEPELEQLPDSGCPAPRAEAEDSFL

PKN1 (human) = PKN1 (human) (UniProt Q16512)
PKN2 (human) = PKN2 (human) (UniProt Q16513)
PRKCE (human) = PRKCE (human) (UniProt Q02156)
PRKCI (human) = PRKCI (human) (UniProt P41743)
PTK2 (human) = PTK2 (human) (UniProt Q05397)
RIPK2 (human) = RIPK2 (human) (UniProt O43353)
ROCK1 (human) = ROCK1 (human) (UniProt Q13464)
TAOK1 (human) = TAOK1 (human) (UniProt Q7L7X3)
TGFBR2 (human) = TGFBR2 (human) (UniProt P37173)
TNK2 (human) = TNK2 (human) (UniProt Q07912)
TSSK2 (human) = TSSK2 (human) (UniProt Q96PF2)
Sequence of TSSK2 (human) (Q96PF2 whole entry, looked up): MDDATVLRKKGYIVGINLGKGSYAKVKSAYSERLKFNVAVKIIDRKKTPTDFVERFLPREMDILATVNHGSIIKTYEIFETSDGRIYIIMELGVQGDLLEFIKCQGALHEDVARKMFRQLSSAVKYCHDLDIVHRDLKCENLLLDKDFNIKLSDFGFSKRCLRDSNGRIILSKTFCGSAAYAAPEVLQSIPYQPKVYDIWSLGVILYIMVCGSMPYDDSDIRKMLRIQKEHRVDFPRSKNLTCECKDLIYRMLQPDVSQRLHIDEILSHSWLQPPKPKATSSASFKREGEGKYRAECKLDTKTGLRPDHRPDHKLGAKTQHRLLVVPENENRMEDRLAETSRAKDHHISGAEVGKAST

TTK (human) = TTK (human) (UniProt P33981)

Sequence of CDK1 CCNB1 (human) (P06493 whole entry, looked up): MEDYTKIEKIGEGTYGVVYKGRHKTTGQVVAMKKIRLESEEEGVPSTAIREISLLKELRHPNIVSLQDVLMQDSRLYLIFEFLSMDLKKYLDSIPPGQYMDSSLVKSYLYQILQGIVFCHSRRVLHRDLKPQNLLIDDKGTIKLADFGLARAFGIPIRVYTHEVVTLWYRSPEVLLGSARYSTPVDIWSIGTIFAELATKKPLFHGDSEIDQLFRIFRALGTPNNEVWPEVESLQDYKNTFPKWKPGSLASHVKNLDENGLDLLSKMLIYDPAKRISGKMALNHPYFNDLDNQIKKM
Sequence of CDK1 CCNB1 (human) (P14635 whole entry, looked up): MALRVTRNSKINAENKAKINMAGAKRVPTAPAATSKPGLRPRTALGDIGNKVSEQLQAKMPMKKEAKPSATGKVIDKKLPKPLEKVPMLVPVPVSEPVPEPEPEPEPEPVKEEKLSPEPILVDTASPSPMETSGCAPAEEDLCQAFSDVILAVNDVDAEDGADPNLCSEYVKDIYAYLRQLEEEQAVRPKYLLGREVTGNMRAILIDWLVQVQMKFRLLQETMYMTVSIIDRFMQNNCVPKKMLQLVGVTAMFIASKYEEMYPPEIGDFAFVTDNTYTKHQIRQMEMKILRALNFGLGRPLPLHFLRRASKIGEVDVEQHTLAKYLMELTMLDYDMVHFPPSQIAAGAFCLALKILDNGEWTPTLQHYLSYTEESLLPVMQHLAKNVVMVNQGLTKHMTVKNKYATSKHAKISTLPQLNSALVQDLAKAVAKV

Question: Which results are given for Cc1nc(-c2ccccc2)c(-c2ccncc2)o1?
Answer: residual activity (AURKA (human)): 91.2%; residual activity (CAMK1 (human)): 105%; residual activity (CAMKK2 (human)): 105%; residual activity (CDC42BPA (human)): 91.9%; residual activity (CDK1 CCNB1 (human)): 90.8%; residual activity (CDK2 CCNA2 (human)): 104%; residual activity (CDK5 CDK5R1 p35 (human)): 104%; residual activity (CDK6 CCND3 (human)): 109%; residual activity (CDK7 CCNH MNAT1 (human)): 109%; residual activity (CDK9 CCNK (human)): 101%; residual activity (CSF1R (human)): 104%; residual activity (DYRK2 (human)): 98.6%; residual activity (EPHB1 (human)): 107%; residual activity (ERBB4 (human)): 92.2%; residual activity (FGFR2 (human)): 108%; residual activity (GRK7 (human)): 98.3%; residual activity (IRAK1 (human)): 124%; residual activity (MAP3K10 (human)): 101%; residual activity (MAP3K14 (human)): 96.2%; residual activity (MAP3K5 (human)): 102%; residual activity (MAPK11 (human)): 101%; residual activity (MAPKAPK3 (human)): 94.7%; residual activity (MAPKAPK5 (human)): 99.2%; residual activity (MARK1 (human)): 92.5%; residual activity (MERTK (human)): 85.6%; residual activity (MYLK2 (human)): 100%; residual activity (NEK11 (human)): 76.7%; residual activity (PAK3 (human)): 100%; residual activity (PDGFRB (human)): 109%; residual activity (PKN1 (human)): 101%; residual activity (PKN2 (human)): 93.4%; residual activity (PRKCE (human)): 103%; residual activity (PRKCI (human)): 101%; residual activity (PTK2 (human)): 106%; residual activity (RIPK2 (human)): 87.4%; residual activity (ROCK1 (human)): 99.8%; residual activity (TAOK1 (human)): 98.5%; residual activity (TGFBR2 (human)): 133%; residual activity (TNK2 (human)): 97.7%; residual activity (TSSK2 (human)): 90.1%; residual activity (TTK (human)): 100%

Question: What does the source list for CCCCc1c(-c2ccc(OC)cc2)[nH]c2nccnc12?
Answer: residual activity (AURKA (human)): 25.5%; residual activity (CAMK1 (human)): 90.9%; residual activity (CAMKK2 (human)): 79.1%; residual activity (CDC42BPA (human)): 99.7%; residual activity (CDK1 CCNB1 (human)): 47.7%; residual activity (CDK2 CCNA2 (human)): 36.3%; residual activity (CDK5 CDK5R1 p35 (human)): 48.3%; residual activity (CDK6 CCND3 (human)): 79.7%; residual activity (CDK7 CCNH MNAT1 (human)): 92.6%; residual activity (CDK9 CCNK (human)): 56.9%; residual activity (CSF1R (human)): 37.7%; residual activity (DYRK2 (human)): 92.9%; residual activity (EPHB1 (human)): 76%; residual activity (ERBB4 (human)): 109%; residual activity (FGFR2 (human)): 89.5%; residual activity (GRK7 (human)): 94.1%; residual activity (IRAK1 (human)): 64.3%; residual activity (MAP3K10 (human)): 82.7%; residual activity (MAP3K14 (human)): 105%; residual activity (MAP3K5 (human)): 95%; residual activity (MAPK11 (human)): 100%; residual activity (MAPKAPK3 (human)): 98.6%; residual activity (MAPKAPK5 (human)): 95.3%; residual activity (MARK1 (human)): 92.9%; residual activity (MERTK (human)): 92.6%; residual activity (MYLK2 (human)): 102%; residual activity (NEK11 (human)): 93.6%; residual activity (PAK3 (human)): 106%; residual activity (PDGFRB (human)): 95.9%; residual activity (PKN1 (human)): 89.1%; residual activity (PKN2 (human)): 88.6%; residual activity (PRKCE (human)): 102%; residual activity (PRKCI (human)): 72.8%; residual activity (PTK2 (human)): 81.7%; residual activity (RIPK2 (human)): 71%; residual activity (ROCK1 (human)): 99.9%; residual activity (TAOK1 (human)): 87%; residual activity (TGFBR2 (human)): 74.8%; residual activity (TNK2 (human)): 51.2%; residual activity (TSSK2 (human)): 93.7%; residual activity (TTK (human)): 87.9%
